Measurements from publication PMC7377239, “Cardiovascular Effects of Polychlorinated Biphenyls and Their Major Metabolites” (Environmental Health Perspectives, 2020).
Read-outs that look alike come from different tables or passages of the source.

Experiments:
[1] = test system: iCell endothelial cells (human iPSC-derived ECs); assay: High-content imaging cytotoxicity in iCell endothelial cells, 24 h; assay type: cell-based; settings: Homo sapiens, Endothelial cell, 24 hr; for viability at 0.1 µM / activity at 0.1 µM: 0.10 µM
Summary of the method: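 Human iPSC-derived endothelial cells (passages 1–5) were grown to a fibronectin-coated monolayer, then exposed 24 h at 37 °C with 0.5% DMSO vehicle. Staining was Hoechst 33342, MitoTracker Orange and calcein AM, read by high-content imaging. Point of departure came from 4-parameter logistic fits, with a 1-SD vehicle cutoff and 100 µM as the top concentration.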

[2] = test system: iCell endothelial cells (human iPSC-derived ECs); assay: Tube formation (tubulogenesis) assay in iCell endothelial cells, 18 h; assay type: cell-based; settings: Homo sapiens, Endothelial cell, 18 hr; for activity at 0.1 µM: 0.10 µM
Summary of the method: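 iCell ECs (passages 1–5) seeded 7,500 cells/well on reduced-growth-factor Geltrex in starvation medium, exposed overnight at 37°C to compounds in triplicate concentration–response (0.5% DMSO vehicle). Calcein AM staining, 4× imaging, angiogenesis image analysis; readouts normalized to vehicle, four-parameter logistic fit, POD at 1 SD of vehicle; 100 μM assigned NOAEL if no response.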

[3] = iPSC-EC, 0.00 µM control = 100.00, read-out: endo.cyto.24hr
[4] = iPSC-EC, 0.00 µM control = 100.00, read-out: endo.mito.24hr
[5] = iPSC-EC, 0.00 µM control = 100.00, read-out: endo.mitoint.24hr
[6] = iPSC-EC, 0.00 µM control = 100.00, read-out: endo.nma.24hr
[7] = iPSC-EC, 0.00 µM control = 100.00, read-out: endo.tc.24hrs
[8] = iPSC-EC tube formation, 0.00 µM control = 100.00, read-out: endo.mtl.18hr
[9] = iPSC-EC tube formation, 0.00 µM control = 100.00, read-out: endo.tlps.18hr
[10] = iPSC-EC tube formation, 0.00 µM control = 100.00, read-out: endo.tta.18hr
[11] = iPSC-EC tube formation, 0.00 µM control = 100.00, read-out: endo.ttl.18hr

SMILES: Clc1ccc(Cl)c(-c2cc(Cl)ccc2Cl)c1 [PCB52]
- viability at 0.01 µM [1, 3]: 100%
- activity at 0.01 µM [1, 4]: 99.8%
- activity at 0.01 µM [1, 5]: 92.8%
- activity at 0.01 µM [1, 6]: 103%
- viability at 0.01 µM [1, 7]: 100%
- viability at 0.1 µM [1, 3]: 98.4%
- activity at 0.1 µM [1, 4]: 97.7%
- activity at 0.1 µM [1, 5]: 87.4%
- activity at 0.1 µM [1, 6]: 103%
- viability at 0.1 µM [1, 7]: 98.4%
- viability at 1 µM [1, 3]: 97.6%
- activity at 1 µM [1, 4]: 97.5%
- activity at 1 µM [1, 5]: 92%
- activity at 1 µM [1, 6]: 100%
- viability at 1 µM [1, 7]: 97.6%
- viability at 10 µM [1, 3]: 99.3%
- activity at 10 µM [1, 4]: 99.4%
- activity at 10 µM [1, 5]: 86.3%
- activity at 10 µM [1, 6]: 101%
- viability at 10 µM [1, 7]: 99.3%
- viability at 100 µM [1, 3]: 97.2%
- activity at 100 µM [1, 4]: 97.4%
- activity at 100 µM [1, 5]: 83.6%
- activity at 100 µM [1, 6]: 100%
- viability at 100 µM [1, 7]: 97.2%
- minimal effective concentration ([1]; iPSC-EC, top concentration 100.00 µM, read-out: endo.cyto.24hr POD): 100 µM
- minimal effective concentration ([1]; iPSC-EC, top concentration 100.00 µM, read-out: endo.mito.24hr POD): 100 µM
- minimal effective concentration ([1]; iPSC-EC, top concentration 100.00 µM, read-out: endo.mitoint.24hr POD): 100 µM
- minimal effective concentration ([1]; iPSC-EC, top concentration 100.00 µM, read-out: endo.nma.24hr POD): 100 µM
- minimal effective concentration ([1]; iPSC-EC, top concentration 100.00 µM, read-out: endo.tc.24hrs POD): 100 µM
- activity at 0.01 µM [2, 8]: 109%
- activity at 0.01 µM [2, 9]: 89.1%
- activity at 0.01 µM [2, 10]: 152%
- activity at 0.01 µM [2, 11]: 156%
- activity at 0.1 µM [2, 8]: 111%
- activity at 0.1 µM [2, 9]: 140%
- activity at 0.1 µM [2, 10]: 108%
- activity at 0.1 µM [2, 11]: 116%
- activity at 1 µM [2, 8]: 107%
- activity at 1 µM [2, 9]: 132%
- activity at 1 µM [2, 10]: 125%
- activity at 1 µM [2, 11]: 133%
- activity at 10 µM [2, 8]: 110%
- activity at 10 µM [2, 9]: 108%
- activity at 10 µM [2, 10]: 119%
- activity at 10 µM [2, 11]: 120%
- activity at 100 µM [2, 8]: 79%
- activity at 100 µM [2, 9]: 83.4%
- activity at 100 µM [2, 10]: 89.5%
- activity at 100 µM [2, 11]: 95.5%
- minimal effective concentration ([2]; iPSC-EC tube formation, top concentration 100.00 µM, read-out: endo.mtl.18hr POD): 79.8 µM
- minimal effective concentration ([2]; iPSC-EC tube formation, top concentration 100.00 µM, read-out: endo.tlps.18hr POD): 100 µM
- minimal effective concentration ([2]; iPSC-EC tube formation, top concentration 100.00 µM, read-out: endo.tta.18hr POD): 100 µM
- minimal effective concentration ([2]; iPSC-EC tube formation, top concentration 100.00 µM, read-out: endo.ttl.18hr POD): 100 µM

SMILES: Oc1ccc(O)c(-c2ccc(Cl)cc2)c1 [2',5'-diOH-PCB 3, 4-Chloro-2′,5′-dihydroxybiphenyl]
- minimal effective concentration ([1]; endothelial cells (endo), cyto, read-out: POD endo.cyto.24hr): 6.71 µM
- minimal effective concentration ([1]; endothelial cells (endo), mito, read-out: POD endo.mito.24hr): 6.71 µM
- minimal effective concentration ([1]; endothelial cells (endo), mitoint, read-out: POD endo.mitoint.24hr): 44.6 µM
- minimal effective concentration ([1]; endothelial cells (endo), nma, read-out: POD endo.nma.24hr): 13.7 µM
- minimal effective concentration ([1]; endothelial cells (endo), tc, read-out: POD endo.tc.24hr): 5.78 µM
- minimal effective concentration ([2]; endothelial cells (endo), tube formation mtl, read-out: POD endo.mtl.18hr): 0.47 µM
- minimal effective concentration ([2]; endothelial cells (endo), tube formation tlps, read-out: POD endo.tlps.18hr): 0.53 µM
- minimal effective concentration ([2]; endothelial cells (endo), tube formation tta, read-out: POD endo.tta.18hr): 1.63 µM
- minimal effective concentration ([2]; endothelial cells (endo), tube formation ttl, read-out: POD endo.ttl.18hr): 1.51 µM
